# In PubChem BioAssay AID1417 (Emory University Molecular Libraries Screening Center, 2008):
# Molecular target: Induced myeloid leukemia cell differentiation protein Mcl-1 (Homo sapiens) (UniProt Q07820)
# Assay: Mcl-1 Noxa peptide disruption concentration-response – biochemical, TR-FRET, dose response (AID 1417)
# Settings: Mcl-1/Noxa peptide interaction, cell-free TR-FRET (terbium/rhodamine), 2 h; measured here: absolute IC50
# Chain of Induced myeloid leukemia cell differentiation protein Mcl-1 (Homo sapiens) (Q07820 whole entry, looked up): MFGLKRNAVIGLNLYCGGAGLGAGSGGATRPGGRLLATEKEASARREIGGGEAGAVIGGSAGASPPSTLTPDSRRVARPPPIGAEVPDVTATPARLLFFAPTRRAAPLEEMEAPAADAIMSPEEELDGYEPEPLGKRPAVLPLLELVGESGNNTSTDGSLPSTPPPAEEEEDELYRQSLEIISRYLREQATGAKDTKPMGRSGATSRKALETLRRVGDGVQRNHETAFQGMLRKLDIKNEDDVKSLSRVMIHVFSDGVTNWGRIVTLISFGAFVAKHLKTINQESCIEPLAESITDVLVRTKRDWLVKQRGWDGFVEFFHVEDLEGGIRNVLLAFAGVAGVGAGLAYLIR
row,SMILES,IC50
1,Oc1[nH]c(=S)sc1/C=C1\C(c2ccccc2)=Nc2ccccc21,8.66 µM
2,Cc1ccc(C2=NC(=O)/C(=C/c3cc(O)c(O)c(Br)c3)S2)cc1,< 0.4 µM
3,COc1ccc2nc(N3C(=O)/C(=C/c4ccc(Cl)cc4)NC3=S)sc2c1,1.43 µM
4,CCN(c1ccc(NC(=O)CCNC(=O)c2ccco2)cc1)C(C)C,> 54 µM
5,CC(=O)Nc1sc(N/N=C/c2ccc(O)cc2)nc1-c1ccc(C)cc1,3.72 µM
6,COCCN=c1scc(-c2cccs2)n1/N=C/c1ccc(O)c(O)c1O,4.33 µM
7,CN1CCN(c2ccc([N+](=O)[O-])cc2/C=N/NC(=O)c2cccc([N+](=O)[O-])c2)CC1,1.42 µM
8,O=C(O)CCCCCN1C(=O)/C(=C\c2ccc(-c3ccc(Cl)cc3)o2)SC1=S,1.36 µM
9,O=C(O)Cc1c[nH]c2cccc(O)c12,0.81 µM
10,CC12CN3CC(C)(CN(C1)C3c1ccccc1Cl)C2O (stereo not given),> 54 µM
11,Cc1ccc(C(=O)COC(=O)CNC(=O)c2ccc(N3C(=O)c4ccccc4C3=O)cc2)cc1C,> 54 µM
12,Cc1ccc(C(=O)Nc2ccc(N3CCCC3)cc2)cc1,> 54 µM
13,O=C(O)CSc1cc(C(=O)c2ccccc2O)cn2c(=O)c3c4c(sc3nc12)CCCC4,3.38 µM
14,COC(=O)c1ccc2nc(Nc3nc4c(F)cc(F)cc4s3)sc2c1,< 0.4 µM
15,COc1cc(/C=N/Nc2nnc3c(n2)[nH]c2ccccc23)ccc1O,5.83 µM
16,COc1cccc(/C=N/Nc2ncnc3c2[nH]c2ccc(C)cc23)c1OC,4.21 µM
17,Cc1ccc(N=C2NC(=O)/C(=C/C=C/c3ccco3)S2)cc1,7.16 µM
18,CCC(C)NCCCOc1c(C)cc(C)cc1Br (stereo not given),> 54 µM
19,CCCCn1c(-c2ccc(Cl)cc2)nc2c(=O)n(C)c(=O)[nH]c21,> 54 µM
20,Nc1ccc(C2=Nc3cccc4cccc(c34)N2)cc1,< 0.4 µM
21,CS(=O)(=O)C1=NSC2=NC(=O)/C(=C\c3cccn3-c3ccccc3Cl)C(=N)N21,5.59 µM
22,O=C(Nc1ccc(N2CCCC2)cc1)c1ccc2ccccc2c1,4.97 µM
23,Oc1c(Cl)cc(Cl)cc1Sc1cc(Cl)cc(Cl)c1O,1.64 µM
24,Oc1ccc(N2CCN(c3ncnc4sc5c(c34)CCC5)CC2)cc1,6.63 µM
25,O=C1C(Cl)=C(N2CCCCC2)C(=O)C(Cl)=C1c1cnc(N2CCCCC2)s1,< 0.4 µM
26,CN(C)c1ccc(NC(=O)CN2C(=O)CN=C(c3ccccc3)c3cc(Cl)ccc32)cc1,> 54 µM
27,Cc1nn(Cc2ccc(F)cc2)c2sc(C(=O)Nc3ccc(N4CCOCC4)cc3N3CCOCC3)cc12,> 54 µM

row,SMILES,IC50
1,O=C(Nc1ccc2nc(-c3ccco3)c(-c3ccco3)nc2c1)NC1CC1,1.33 µM
2,Nc1ccc2nc(-c3ccc(Cl)cc3)[nH]c2c1,30.5 µM
3,CCOC(=O)/C=C(\C)Sc1cc(O)c2ccccc2c1O,< 0.4 µM
4,Nc1ncnc2oc(-c3ccco3)c(-c3ccco3)c12,3.7 µM
5,O=C(Nc1nc(-c2ccncc2)cs1)c1ccco1,3.61 µM
6,O=C(/C=C1\NC2(CCCC2)Cc2ccccc21)C(=O)N/N=C/c1ccc(O)c(O)c1,3.47 µM
7,Cn1cc(C(=O)N/N=C/c2ccc([N+](=O)[O-])cc2)c2ccccc21,3.04 µM
8,Oc1c(Br)cc(C=Nc2ccc3nc(-c4ccccc4)[nH]c3c2)c(O)c1Br,0.594 µM
9,CN1CCc2cccc3c2[C@@H]1Cc1ccc(O)c(O)c1-3,0.827 µM
10,Cc1ccc(/C=C2/SC(=O)NC2=S)o1,4.11 µM
11,O=c1oc2c(O)c(O)cc3c(=O)oc4c(O)c(O)cc1c4c23,< 0.4 µM
12,O=C1Nc2ccc(Br)cc2/C1=C/C(=O)c1ccc2c(c1)OCO2,1.38 µM
13,CC(=O)c1ccc(NC(=O)CSc2nnc(-c3ccco3)c(-c3ccco3)n2)cc1,5.96 µM
14,O=C1NC(=S)N(c2ccccc2F)C(=O)/C1=C\c1cccs1,3.77 µM
15,CS(=O)(=O)C1=NSC2=NC(=O)/C(=C\c3cccn3-c3ccc(Cl)cc3)C(=N)N21,3.74 µM
16,O=C(O)c1cccc(NC2=C(Cl)C(=O)c3ccccc3C2=O)c1,3.79 µM
17,COc1ccc(-c2nn(CCC(=O)O)cc2/C=C2\SC(N)=NC2=O)cc1OC,4.36 µM
18,CCOC(=O)c1[nH]c2c(c1C)C(=O)CC(c1ccco1)C2 (stereo not given),5.64 µM
19,O=C(CSc1cccc[n+]1[O-])Nc1cc2c(cc1Cl)C(=O)c1ccccc1C2=O,3.74 µM
20,Cc1ccc(/C=C2\SC(=S)N(Cc3ccccc3)C2=O)o1,> 54 µM
21,CC1=C(C#N)C(=O)N(C2CCS(=O)(=O)C2)C(=O)/C1=C\c1ccc(C)o1 (stereo not given),< 0.4 µM
22,O=C1N=c2ccc(Br)cc2=C1c1sc(=S)n(NS(=O)(=O)c2ccccc2)c1O,> 54 µM
23,Cc1cc(/C=C2/C(=O)NN(c3ccccc3)C2=O)c(C)n1-c1cccc(O)c1,3.25 µM
24,Cc1ccc([N+](=O)[O-])cc1N=Nc1c(-c2ccc([N+](=O)[O-])cc2)[nH]n(C(N)=S)c1=O,< 0.4 µM
25,O=C(O)c1ccccc1-c1ccc(/C=c2\sc3nc4cc(Br)cnc4n3c2=O)o1,3.09 µM
26,Cc1ccc(NC(=O)CN2C(=O)N/C(=C/c3cc(C)n(-c4ccc(C(=O)O)cc4)c3C)C2=O)cc1,5.14 µM
27,O=C(O)COc1ccc(/C=N/NC(=O)c2ccc(-c3csc(Nc4ccc(Cl)cc4)n3)cc2)cc1,0.784 µM

row,SMILES,IC50
1,Cc1[nH]n(-c2ncc(-c3ccccc3)s2)c(=O)c1C(c1ccc(Br)cc1)C(C#N)C#N (stereo not given),6.54 µM
2,CNCc1ccccc1Sc1cc(O)ccc1O,4.17 µM
3,O=C(O)c1ccc(NC2=C/C(=N/S(=O)(=O)c3ccccc3)c3ccccc3C2=O)cc1,< 0.4 µM
4,COc1cc2cc3c(N)c(C(=O)Nc4sc(C)c(C)c4C#N)sc3nc2cc1OC,1.07 µM
5,CS(=O)(=O)c1ccc2c(c1)sc1nc(=O)c(/C=C3/C=CC(=O)C(O)=C3)c(N)n12,< 0.4 µM
6,COc1ccc(OC)c2c1C(=O)C(Cl)=C(Cl)C2=O,< 0.4 µM
7,O=C1NC(=Nc2ccccc2)S/C1=C\C=C\c1ccco1,< 0.4 µM
8,O=C(NN1C(=O)/C(=C/C=C/c2ccco2)SC1=S)c1ccncc1,2.23 µM
9,COc1ccc(/C=C2\C(=O)NC(=S)N2C(=O)c2ccc(C)cc2)cc1,> 54 µM
10,CC(OC(=O)c1cccc(N2C(=O)c3ccccc3C2=O)c1)C(=O)Nc1ccc(N(C)C)cc1 (stereo not given),> 54 µM
11,CN(C)c1ccc(NC(=O)Nc2cccc(Cl)c2)cc1,< 0.4 µM
12,COc1cc(/C=C2/C(=O)c3cccc([N+](=O)[O-])c3C2=O)c(Br)cc1O,< 0.4 µM
13,O=C(CSc1nnc(-c2ccco2)c(-c2ccco2)n1)Nc1ccccc1,2.92 µM
14,Cc1cccc(NC(=O)CSc2nnc(-c3ccco3)c(-c3ccco3)n2)c1C,6.47 µM
15,COc1ccccc1/C=c1\sc2nc(-c3ccco3)nn2c1=O,8.18 µM
16,O=c1[nH]c(C(Cl)Cl)nc2sc3c(c12)CCN(Cc1ccccc1)C3,> 54 µM
17,O=c1cc(-c2ccccc2Cl)oc2c(NS(=O)(=O)c3cc(Cl)cc(Cl)c3O)ccc(O)c12,2.41 µM
18,O=C(O[C@@H]1OC2COC(=O)c3cc(O)c(O)c(O)c3-c3c(cc(O)c(O)c3O)C(=O)O[C@@H]([C@H]1O)[C@@H]2O)c1cc(O)c(O)c(O)c1,< 0.4 µM
19,Cc1ccc(-n2c(=O)c3cc4c(=O)n(-c5ccc(C)c(C)c5)c(=O)c4c(C(=O)c4ccc(C(=O)O)cc4)c3c2=O)cc1C,4.28 µM
20,Cc1ccc(CNC(=O)c2ccc(-n3cccc3)cc2)cc1,2.26 µM
21,Cc1cc(C)c(S(=O)(=O)/N=C2/C=C(Sc3ncn[nH]3)C(=O)c3ccccc32)cc1C,< 0.4 µM
22,O=C(O)c1cccc(-n2cccc2/C=C2/NC(=O)N(c3ccc(Cl)cc3)C2=O)c1,< 0.4 µM
23,Cc1ccc2c(c1Cl)NC(C(=O)O)C1CC(Sc3ccccc3[N+](=O)[O-])C(Cl)C21 (stereo not given),2.52 µM
24,NC(=S)n1[nH]c(-c2ccc([N+](=O)[O-])cc2)c(N=Nc2cccc([N+](=O)[O-])c2)c1=O,1.65 µM
25,Cc1n[nH]c(=S)n(NC(=O)/C=C/C(=O)Nn2c(=S)[nH]nc(C)c2=O)c1=O,< 0.4 µM
26,Cc1ccc(C2C(/C=C3/SC(=S)NC3=O)=C(c3cccs3)Oc3ccccc32)cc1 (stereo not given),< 0.4 µM
27,O=[N+]([O-])c1cccc(N/N=C/c2cc([N+](=O)[O-])ccc2O)c1,0.428 µM

row,SMILES,IC50
1,O=C(O)c1cccc(N/N=C/C2=C(Cl)c3cc(Cl)ccc3SC2)c1,4.33 µM
2,O=C(N/N=C/c1cccc(F)c1)c1cc(-c2ccco2)nc2ccccc12,< 0.4 µM
3,O=C(O)c1ccc(N/N=C/c2ccc(-c3ccc(Cl)cc3Cl)o2)cc1,4.36 µM
4,Oc1ccc(/C=N/N=C(c2ccccc2)c2ccccc2)c(O)c1O,< 0.4 µM
5,CN(C)c1ccc(/C=N/N(Cc2ccccc2)c2ccccc2)cc1,> 54 µM
6,N=c1oc2cc(O)ccc2cc1C(=O)Nc1nc2ccccc2s1,2.93 µM
7,COc1ccc2nc(Nc3sc4c(c3C(N)=O)CCCC4)sc2c1,< 0.4 µM
8,O=c1[nH]c(=S)[nH]c(O)c1N=Nc1ccc(-c2ccccc2)cc1[N+](=O)[O-],2.99 µM
9,O=C1SC(SCc2ccccc2Cl)=N/C1=C\c1ccc(C(=O)O)cc1,4.67 µM
10,CCn1cc(C(=O)NCc2ccc3c(c2)OCO3)c2cc(OC)c(OC)cc2c1=O,> 54 µM
11,CC(C)Cn1c(N)c(C(=O)COC(=O)c2cc(-c3ccco3)nc3ccccc23)c(=O)n(C)c1=O,1.45 µM
12,Cc1c(Cc2ccccc2)c(NCCN(C)C)n2c(nc3ccccc32)c1C#N,1.91 µM
13,COc1ccc(NC(=S)NNc2ccc(S(=O)(=O)Nc3ccccc3C(=O)O)cc2[N+](=O)[O-])cc1,> 54 µM
14,O=C(/C=C/c1ccc(Cl)c([N+](=O)[O-])c1)Nc1ccc(N2CCCC2)cc1,8.3 µM
15,Oc1ccc(-c2csc(Nc3ncccn3)n2)cc1O,< 0.4 µM
16,CCCCCn1c(N)c(-c2nc3ccccc3o2)c2c([N+](=O)[O-])nn(CC)c(=O)c21,2.8 µM
17,CC1=C(C#N)c2nc(N)c(C#N)c(C)c2/C1=C\c1ccc(-c2ccccc2C(=O)O)o1,2.98 µM
18,O=C1NC(=S)NC(=O)C1=Cc1cccn1-c1ccc(O)cc1,3.36 µM
19,O=C(O)COc1ccccc1C(Nc1ccccn1)c1cc(Cl)c2cccnc2c1O (stereo not given),< 0.4 µM
20,O=C(O)c1cc(N/N=C/c2ccc(N3CCOCC3)s2)ccc1Cl,1.08 µM
21,Cc1nnc(NC(=O)c2sc3nc(-c4cccs4)cc(C(F)(F)F)c3c2N)s1,1.6 µM
22,COc1ccc2nc(-c3ccco3)c(-c3ccco3)nc2c1,2.25 µM
23,O=C(O)c1ccc(N/N=C/c2ccc(-c3cc(Cl)ccc3Cl)o2)cc1,1.84 µM
24,Cc1ccc(NC2=C(NC(=O)c3ccccc3)C(=O)c3ccccc3C2=O)cc1Cl,3.9 µM
